This passage reports EC50 and Emax results from patent publication US8546377B2 (AbbVie Inc., priority 2009, dated 2013).

For test [1], the target named is T1, 5HT2C receptors (Homo sapiens, UniProt P28335).
T1 sequence (P28335 33-458): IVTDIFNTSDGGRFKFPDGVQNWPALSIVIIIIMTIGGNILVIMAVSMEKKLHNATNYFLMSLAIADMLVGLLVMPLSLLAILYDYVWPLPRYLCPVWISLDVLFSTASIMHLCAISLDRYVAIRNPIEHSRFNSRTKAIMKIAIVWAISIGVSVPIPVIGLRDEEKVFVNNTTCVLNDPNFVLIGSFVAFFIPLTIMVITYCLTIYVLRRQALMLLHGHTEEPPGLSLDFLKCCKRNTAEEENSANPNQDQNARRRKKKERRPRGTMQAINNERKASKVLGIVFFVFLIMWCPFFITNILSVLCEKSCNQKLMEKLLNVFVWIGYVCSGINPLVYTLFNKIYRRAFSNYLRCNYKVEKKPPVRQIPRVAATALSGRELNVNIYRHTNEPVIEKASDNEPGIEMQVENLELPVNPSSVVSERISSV
Nature of the test: Human 5-HT2C functional assay in CHO-K1 cells (calcium flux, FLIPR). The class given is cell-based. Set-up: expressed in transfected cells; host or cells: CHO-K1 cells. In a few lines: (§1)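 EC50 came from a 4-parameter logistic fit, with Emax expressed relative to serotonin, of intracellular Ca2+ rises read on FLIPR at 480/530 nm, 25° C, over 3 min. Compounds ran from 10 μM in six 1:10 steps (0.2% DMSO) on serum-starved CHO-K1 transfectants pre-loaded 60 min with Ca4 dye and probenecid.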
(In general: Calcium flux is commonly read through the fluorescence of an indicator in the cells.)

In test [2] the target is T2, 5HT2B receptors (Homo sapiens, UniProt P41595).
T2 construct: expressed in transfected cells; host or cells: CHO-K1 cells
T2 sequence (P41595 whole entry): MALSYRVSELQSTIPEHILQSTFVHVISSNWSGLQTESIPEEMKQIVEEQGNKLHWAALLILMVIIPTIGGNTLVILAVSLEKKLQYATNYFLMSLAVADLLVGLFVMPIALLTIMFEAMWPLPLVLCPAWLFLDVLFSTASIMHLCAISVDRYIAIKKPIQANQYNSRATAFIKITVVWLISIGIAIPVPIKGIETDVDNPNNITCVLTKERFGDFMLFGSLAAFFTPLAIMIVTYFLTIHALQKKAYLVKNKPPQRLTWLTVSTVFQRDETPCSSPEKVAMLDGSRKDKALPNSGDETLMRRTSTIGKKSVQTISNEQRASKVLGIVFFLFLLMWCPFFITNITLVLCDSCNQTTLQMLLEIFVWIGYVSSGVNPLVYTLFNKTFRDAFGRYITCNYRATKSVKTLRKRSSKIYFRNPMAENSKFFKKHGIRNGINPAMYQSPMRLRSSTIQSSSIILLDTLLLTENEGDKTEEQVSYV
In words: Human 5-HT2B functional assay in CHO-K1 cells (calcium flux, FLIPR). The format is cell-based. In a few lines: as §1

Setting [3] is: CHO-K1 cells over-expressing 5HT2C, calcium flux, read-out: EC50 (μM), 5-HT2c Agonist Activity.
Where [4] appears, read: CHO-K1 cells, percentage relative to the effect of serotonin, read-out: Emax (%), 5-HT2c Agonist Activity.
Setting [5] is: CHO-K1 cells over-expressing 5HT2B, calcium flux, read-out: EC50 (μM), 5-HT2B Agonist Activity.
Setting [6] is: CHO-K1 cells, percentage relative to the effect of serotonin, read-out: Emax (%), 5-HT2B Agonist Activity.
Where [7] appears, read: CHO-K1, read-out: Emax (%), 5-HT2c Agonist Activity, CHO-K1 cells, percentage relative to the effect of serotonin.
The mark [8] stands for this setting: CHO-K1, read-out: Emax (%), 5-HT2B Agonist Activity.

Structures are written as SMILES. Read-outs that look alike come from different tables or passages of the source. Some results are limits rather than exact numbers.

With `O=C1CC2CNCCN2c2cc(-c3cccc(F)c3)ccc2N1` (stereo not shown) [Example 61, 10-(3-fluorophenyl)-1,2,3,4,4a,5-hexahydropyrazino[1,2-a][1,5]benzodiazepin-6(7H)-one], the concentration for a half-maximal effect (EC50) (as a rule, the midpoint of the concentration-response curve) is 0.1 µM in test [1] (setting [3]) and > 10 µM in test [2] (setting [5]). For the same compound, in test [1] (setting [4]), the Emax (as a rule, the greatest response seen or fitted, relative to the assay's reference) was > 120%.

Regarding `O=C1CC2CNCCN2c2cc(OCc3cccc(F)c3)ccc2N1` (stereo not shown) [Example 156, 10-[(3-fluorobenzyl)oxy]-1,2,3,4,4a,5-hexahydropyrazino[1,2-a][1,5]benzodiazepin-6(7H)-one], the EC50 worked out at 0.0059 µM in test [1] (setting [3]) and 0.35 µM in test [2] (setting [5]). In addition, the Emax in test [1] (setting [4]) was > 120%; in test [2] (setting [6]), 77%.

With `COc1ccc(-c2ccc3c(c2)N2CCNC[C@@H]2CCO3)cc1` [Example 194, (4aS)-10-(4-methoxyphenyl)-2,3,4,4a,5,6-hexahydro-1H-pyrazino[2,1-d][1,5]benzoxazepine], the concentration giving a half-maximal response (EC50) in test [1] (setting [3]) is 0.4 µM; in test [2] (setting [5]), > 10 µM. Also, the Emax in test [1] (setting [4]) is > 120%.

As to `[2H]c1ccc2c(c1)N1CCNC[C@@H]1CCO2` [Example 262, (4aS)-(10-^2H)-2,3,4,4a,5,6-hexahydro-1H-pyrazino[2,1-d][1,5]benzoxazepine], the results for the EC50 in test [1] and in test [2] were 0.005 µM and 0.2 µM, respectively. For the same compound, the results for the Emax in test [1] (setting [7]) and in test [2] (setting [8]) were 90% and 15%, respectively.

In the case of `Fc1ccc2c(c1F)OCC[C@H]1CNCCN21` [Example 218, (4aS)-8,9-difluoro-2,3,4,4a,5,6-hexahydro-1H-pyrazino[2,1-d][1,5]benzoxazepine], the concentration for a half-maximal effect (EC50) was determined as 0.002 µM in test [1] and 0.07 µM in test [2]. Also, the maximal response (Emax) was 100% in test [1] (setting [7]) and 20% in test [2] (setting [8]).

`CN1CCN2c3ccc(Cl)cc3OCC[C@H]2C1` [Example 220, (4aS)-9-chloro-3-methyl-2,3,4,4a,5,6-hexahydro-1H-pyrazino[2,1-d][1,5]benzoxazepine]: the 50% effective concentration (EC50) in test [1] was 0.04 µM; in test [2] it was > 10 µM. In addition, in test [1] (setting [7]), the Emax stood at 40%.

With `Oc1ccccc1-c1ccc2c(c1)N1CCNC[C@@H]1CCO2` [Example 200, 2-[(4aS)-2,3,4,4a,5,6-hexahydro-1H-pyrazino[2,1-d][1,5]benzoxazepin-10-yl]phenol], the EC50 in test [1] (setting [3]) is 0.01 µM; in test [2] (setting [5]), > 10 µM. Further, the Emax in test [1] (setting [4]) was > 120%.

Regarding `COc1ccc(-c2ccc3c(c2)N2CCNCC2CC(=O)N3)cc1` (stereo not shown) [Example 58, 10-(4-methoxyphenyl)-1,2,3,4,4a,5-hexahydropyrazino[1,2-a][1,5]benzodiazepin-6(7H)-one], the EC50 in test [1] (setting [3]) is 0.2 µM; in test [2] (setting [5]), > 10 µM. Besides, the Emax in test [1] (setting [4]) was found to be 110%.

Turning to `O=C1CC2CNCCN2c2cc(-c3ccc4ccccc4c3)ccc2N1` (stereo not shown) [Example 57, 10-(2-naphthyl)-1,2,3,4,4a,5-hexahydropyrazino[1,2-a][1,5]benzodiazepin-6(7H)-one], the EC50 in test [1] (setting [3]) was 0.9 µM; in test [2] (setting [5]), > 10 µM. Also, in test [1] (setting [4]), the Emax amounted to 100%.

As for `O=C1CC2CNCCN2c2cc(-c3ccoc3)ccc2N1` (stereo not shown) [Example 69, 10-(3-furyl)-1,2,3,4,4a,5-hexahydropyrazino[1,2-a][1,5]benzodiazepin-6(7H)-one], the values for the EC50 in test [1] (setting [3]) and in test [2] (setting [5]) were 0.02 µM and 0.09 µM, respectively. Further, the Emax in test [1] (setting [4]) turned out to be 110%; in test [2] (setting [6]), 80%.

Turning to `C[C@H](Oc1ccc2c(c1)N1CCNCC1CC(=O)N2)c1ccccc1F` (stereo partly drawn) [Example 162, 10-[(1S)-1-(2-fluorophenyl)ethoxy]-1,2,3,4,4a,5-hexahydropyrazino[1,2-a][1,5]benzodiazepin-6(7H)-one], the EC50 in test [1] (setting [3]) amounted to 0.07 µM; in test [2] (setting [5]), 1 µM. Also, the Emax in test [1] (setting [4]) was > 120%; in test [2] (setting [6]) it was 20%.

With `O=C1CC2CNCCN2c2cc(-c3cnc4ccccc4c3)ccc2N1` (stereo not shown) [Example 62, 10-(quinolin-3-yl)-1,2,3,4,4a,5-hexahydropyrazino[1,2-a][1,5]benzodiazepin-6(7H)-one], the half-maximal effective concentration (EC50) in test [1] (setting [3]) came to 0.06 µM; in test [2] (setting [5]) it was 0.9 µM. Further, the maximal effect (Emax) in test [1] (setting [4]) is > 120%; in test [2] (setting [6]) it was 60%.

Take `O=C1CC2CNCCN2c2cc(/C=C/c3cc(F)cc(F)c3)ccc2N1` (stereo not shown) [Example 143, 10-[(E)-2-(3,5-difluorophenyl)vinyl]-1,2,3,4,4a,5-hexahydropyrazino[1,2-a][1,5]benzodiazepin-6(7H)-one]: the EC50 in test [1] (setting [3]) amounted to 0.02 µM; in test [2] (setting [5]) it was 1 µM. Further, the Emax in test [1] (setting [4]) was > 120%; in test [2] (setting [6]) it was 60%.

Take `C[C@H](Cc1ccccc1)Oc1ccc2c(c1)N1CCNC[C@@H]1CC(=O)N2` [Example 165, (4aS)-10-{[(2R)-1-phenylpropan-2-yl]oxy}-1,2,3,4,4a,5-hexahydropyrazino[1,2-a][1,5]benzodiazepin-6(7H)-one]: the EC50 in test [1] (setting [3]) was 0.008 µM; in test [2] (setting [5]), > 10 µM. Besides, in test [1] (setting [4]), the maximal effect (Emax) is > 120%.

For the compound `[2H]c1cc2c(cc1[2H])N1CCNC[C@@H]1CCO2` [Example 267, (4aS)-(9,10-^2H2)-2,3,4,4a,5,6-hexahydro-1H-pyrazino[2,1-d][1,5]benzoxazepine], the EC50 turned out to be 0.005 µM in test [1] and 0.2 µM in test [2]. For the same compound, the Emax was 90% in test [1] (setting [7]) and 20% in test [2] (setting [8]).

Take `Cc1cc(Cl)cc2c1OCC[C@H]1CNCCN21` [Example 227, (4aS)-10-chloro-8-methyl-2,3,4,4a,5,6-hexahydro-1H-pyrazino[2,1-d][1,5]benzoxazepine]: the concentration giving a half-maximal response (EC50) in test [1] was determined as 0.008 µM; in test [2] it was 0.05 µM. The maximum response (Emax) in test [1] (setting [7]) turned out to be 85%; in test [2] (setting [8]), 20%.

Take `c1cncc(-c2ccc3c(c2)N2CCNC[C@@H]2CCO3)c1` [Example 206, (4aS)-10-(pyridin-3-yl)-2,3,4,4a,5,6-hexahydro-1H-pyrazino[2,1-d][1,5]benzoxazepine]: the EC50 in test [1] is 0.07 µM; in test [2], > 10 µM. In test [1] (setting [7]), the maximal effect (Emax) was > 120%.

`Clc1ccc2c(c1)N1CCNC[C@@H]1CCO2` [Example 140, (4aS)-10-chloro-2,3,4,4a,5,6-hexahydro-1H-pyrazino[2,1-d][1,5]-benzoxazepine]: the EC50 in test [1] came to 0.0005 µM; in test [2] it was 0.03 µM. For the same compound, the values for the Emax in test [1] (setting [7]) and in test [2] (setting [8]) were > 120% and 60%, respectively.

Regarding `c1cc(-c2ccc3c(c2)N2CCNC[C@@H]2CCO3)co1` [Example 224, (4aS)-10-(3-furyl)-2,3,4,4a,5,6-hexahydro-1H-pyrazino[2,1-d][1,5]benzoxazepine], the results for the concentration giving a half-maximal response (EC50) in test [1] (setting [3]) and in test [2] (setting [5]) were 0.1 µM and 0.4 µM, respectively. The Emax in test [1] (setting [4]) is 85%; in test [2] (setting [6]), 40%.

As to `O=C1CC2CNCCN2c2cc(-c3ccc(F)cc3)ccc2N1` (stereo not shown) [Example 74, 10-(4-fluorophenyl)-1,2,3,4,4a,5-hexahydropyrazino[1,2-a][1,5]benzodiazepin-6(7H)-one], the EC50 in test [1] (setting [3]) was 0.07 µM; in test [2] (setting [5]), > 10 µM. Further, in test [1] (setting [4]), the maximum response (Emax) came out at 100%.

For `Cc1cccc(CCOc2ccc3c(c2)N2CCNC[C@@H]2CC(=O)N3)c1` [Example 176, (4aS)-10-[2-(3-methylphenyl)ethoxy]-1,2,3,4,4a,5-hexahydropyrazino[1,2-a][1,5]benzodiazepin-6(7H)-one], the results for the concentration giving a half-maximal response (EC50) in test [1] (setting [3]) and in test [2] (setting [5]) were 0.002 µM and 1 µM, respectively. Besides, the Emax came to 100% in test [1] (setting [4]) and 10% in test [2] (setting [6]).

Consider `Cc1cccc2c1OCC[C@H]1CN(CCF)CCN21` [Example 246, (4aS)-3-(2-fluoroethyl)-8-methyl-2,3,4,4a,5,6-hexahydro-1H-pyrazino[2,1-d][1,5]benzoxazepine], for which the maximal effect (Emax) in test [1] (CHO-K1, read-out: Emax (%), 5-HT2c Agonist Activity) was found to be 95%. The half-maximal effective concentration (EC50) in test [1] (setting [3]) is 0.007 µM; in test [2] (setting [5]), > 10 µM.

`C[C@H]1C[C@H]2CNCCN2c2ccccc2O1` (single isomer, unassigned) [Example 253]: the 50% effective concentration (EC50) in test [1] is 0.09 µM; in test [2] it was > 10 µM. Also, the maximal effect (Emax) in test [1] (setting [7]) was 100%.

Regarding `O=C1CC2CNCCN2c2cc(C3CC3)ccc2N1` (stereo not shown) [Example 52, 10-cyclopropyl-1,2,3,4,4a,5-hexahydropyrazino[1,2-a][1,5]benzodiazepin-6(7H)-one], the EC50 in test [1] (setting [3]) is 0.05 µM; in test [2] (setting [5]) it was > 10 µM. Also, in test [1] (setting [4]), the Emax was > 80%.

Regarding `Oc1ccc(-c2ccc3c(c2)N2CCNC[C@@H]2CCO3)cc1` [Example 202, 4-[(4aS)-2,3,4,4a,5,6-hexahydro-1H-pyrazino[2,1-d][1,5]benzoxazepin-10-yl]phenol], the results for the half-maximal effective concentration (EC50) in test [1] (setting [3]) and in test [2] (setting [5]) were 0.005 µM and 1 µM, respectively. The Emax in test [1] (setting [4]) was > 120%; in test [2] (setting [6]), 15%.
